From patent US20240424146A1, “DRUG SCREENING METHOD AND MODEL FOR MONITORING PLATINUM-RESISTANT OVARIAN CANCER TUMOR GROWTH AND METASTASES” (THE BOARD OF REGENTS OF THE UNIVERSITY OF OKLAHOMA, priority 2023, published 2024) come the findings set out here.

For the assay, the system named is OVCAR-8 CPR Luc cells. The experiment in a line: cisplatin dose response, cell viability by MTS assay. In kind it is cell-based, human. The conditions noted are these: non-linear regression, FIG. 1. As for the experimental part:
Cells were treated with increasing doses of cisplatin and cell viability was measured using the MTS assay. IC50 values were calculated using non-linear regression analysis in GraphPad Prism software.
Next, we confirmed that these cells retained their inherent response to cisplatin. […] To determine if luciferase activity could be visualized in vitro we plated the OVCAR-8 CPR Luc cells in 2-dimensional (2D) adherent and suspended three-dimensional (3D) spheroid conditions.
In general terms: Tetrazolium assays rely on reduction of a dye to a coloured formazan, in cell work by metabolically active cells.

The structures appear in SMILES notation.

In the case of `N.N.[Cl][Pt][Cl]` [cisplatin], the “IC50 of OVCAR-8 CPR Luc cells to cisplatin relative to cisplatin-sensitive cells (OVCAR-8 Luc)” value is “twice”.
